Consider 1 compound from ChEMBL document CHEMBL3046643, “Effect of chronic treatment with new benzylidene-thiazolidine-2,4-dione (LPSF/GQ-06) with potential hypoglycemic on rat Leydig cell steroidogenesis” (Med Chem Res, 2013).

Calls of active or inactive are those of the source. The rule behind the calls is not given here.

Data set [1] deals with Rattus norvegicus. Description: Toxicity in Rattus norvegicus Wistar albino (rat) Leydig cells assessed as morphological changes at 5 mg/kg, po after 15 days by hematoxylin-eosin staining-based light microscopic analysis relative to untreated control. The following applies: in vivo, 360 h. It counts as organism-based. Set-up: dose 5 mg/kg, route oral.
Data set [2] deals with Rattus norvegicus. Description: Induction of steroidogenesis in Rattus norvegicus Wistar albino (rat) Leydig cells assessed as increase in 22(R)-OH-C-induced testosterone level at 5 mg/kg, po after 15 days by radioimmunoassay (reference value: 83.5 +/- 3.36 no unit). The format is functional.
The test system of data set [3] is Rattus norvegicus. In words: Induction of steroidogenesis in Rattus norvegicus Wistar albino (rat) assessed as increase in total plasma testosterone level at 5 mg/kg, po after 15 days (reference value: 2.01 +/- 1.21 ng/mL). The format is functional.
Data set [4] deals with Rattus norvegicus. In words: Toxicity in Rattus norvegicus Wistar albino (rat) assessed as change in relative weight of testis at 5 mg/kg, po after 15 days. The format is organism-based. On the set-up: dose 5 mg/kg, route oral. As to conditions: in vivo, 360 h.
In data set [5] the test system is Rattus norvegicus. Description: Induction of steroidogenesis in Rattus norvegicus Wistar albino (rat) Leydig cells assessed as increase in pregnenolone-induced testosterone level at 5 mg/kg, po after 15 days by radioimmunoassay (reference value: 34 +/- 5.49 no unit). The format is functional.
The subject of data set [6] is Rattus norvegicus. Description: Toxicity in Rattus norvegicus Wistar albino (rat) assessed as change in body weight at 5 mg/kg, po after 15 days. Set-up: dose 5 mg/kg, route oral. As to conditions: in vivo, 360 h. It counts as organism-based.
For data set [7], the system named is Rattus norvegicus. Description: Effect on P450scc expression in Rattus norvegicus Wistar albino (rat) Leydig cells at 5 mg/kg, po after 15 days by immunocytochemistry analysis relative to untreated control. The format is functional, organism-based. On the set-up: dose 5 mg/kg.
Data set [8] concerns Rattus norvegicus. In words: Effect on StAR expression in Rattus norvegicus Wistar albino (rat) Leydig cells at 5 mg/kg, po after 15 days by immunocytochemistry analysis relative to untreated control. The format is functional, organism-based. Set-up: dose 5 mg/kg.
Data set [9] relates to Rattus norvegicus. In words: Toxicity in Rattus norvegicus Wistar albino (rat) assessed as change in relative dry weight of seminal vesicle at 5 mg/kg, po after 15 days. The format is organism-based. On the set-up: dose 5 mg/kg, route oral. As to conditions: in vivo, 360 h.
The test system of data set [10] is Rattus norvegicus. Description: Induction of steroidogenesis in Rattus norvegicus Wistar albino (rat) Leydig cells assessed as increase in human chorionic gonadotropin-induced testosterone level at 5 mg/kg, po after 15 days by radioimmunoassay (reference value: 92.75 +/- 4.38 no unit). It counts as functional.
Data set [11] has as its system Rattus norvegicus. Description: Toxicity in Rattus norvegicus Wistar albino (rat) Leydig cells assessed as morphological changes at 5 mg/kg, po after 15 days by electron transmission microscopic analysis relative to untreated control. The format is organism-based. On the set-up: dose 5 mg/kg, route oral. The following applies: in vivo, 360 h.
For data set [12], the system named is Rattus norvegicus. Description: Induction of steroidogenesis in Rattus norvegicus Wistar albino (rat) Leydig cells assessed as increase in dbcAMP-induced testosterone level at 5 mg/kg, po after 15 days by radioimmunoassay (reference value: 69.83 +/- 1.85 no unit). The format is functional.

`COc1cccc(OC)c1/C=C1\SC(=O)N(Cc2ccc(C)cc2)C1=O`: the Activity result in the data set with Rattus norvegicus [1] is “Non-toxic”; in the data set on Rattus norvegicus [3], 7.7 ng/mL; in the data set on Rattus norvegicus [4] it was “Non-toxic”; with Rattus norvegicus [6], “Non-toxic”; with Rattus norvegicus [9], “Non-toxic”; with Rattus norvegicus [11], “Non-toxic”. Moreover, the testosterone level in the data set with Rattus norvegicus [2] is 118.3; with Rattus norvegicus [5], 56.66; with Rattus norvegicus [10], 164.1; in the data set on Rattus norvegicus [12], 154.16. In addition, the outcome with Rattus norvegicus [7] and in the data set on Rattus norvegicus [8] was inactive.
